Laboratory results: ChEMBL document CHEMBL5033996, “Design, Synthesis, and Bioactivity Evaluation of Dual-Target Inhibitors of Tubulin and Src Kinase Guided by Crystal Structure” (J Med Chem, 2021)
Calls of active or inactive are those of the source. No cut-off for these calls is given here.

Columns and labels:
K562 = assay: Antiproliferative activity against human K562 cells assessed as inhibition of cell proliferation measured after 72 hrs by MTT assay; assay type: functional, cell-based; details: K562, 72 h
SK-OV-3 [1] = assay: Antiproliferative activity against human SK-OV-3 cells assessed as inhibition of cell proliferation measured after 72 hrs by MTT assay; assay type: functional, cell-based; details: SK-OV-3, 72 h
Ramos = assay: Antiproliferative activity against human Ramos cells assessed as inhibition of cell proliferation measured after 72 hrs by MTT assay; assay type: functional, cell-based
SK-OV-3 [2] = assay: Induction of mitotic block in human SK-OV-3 cells at 10 to 30 nM in absence of colchicine measured immediately by flow cytometry analysis; assay type: functional, cell-based; details: dose 10-30 nM
[3] = Oral bioavailability in Sprague-Dawley rat at 5 mg/kg measured up to 24 hrs by LC/MS/MS analysis; assay type: ADME, organism-based; details: in vivo
[4] = Cmax in Sprague-Dawley rat at 5 mg/kg, po measured up to 24 hrs by LC/MS/MS analysis; assay type: ADME, organism-based; parameters: route oral, dose 5 mg/kg, time <=24; details: in vivo
[5] = Toxicity in C57 mouse at 40 mg/kg, po administered twice daily; assay type: organism-based; details: in vivo
[6] = AUC (0 to t) in Sprague-Dawley rat at 5 mg/kg, po measured up to 24 hrs by LC/MS/MS analysis; assay type: ADME, organism-based; parameters: route oral, dose 5 mg/kg, time <=24; details: in vivo
[7] = Antitumor activity against mouse C26 cells xenografted in BALB/c mouse assessed as tumor growth inhibition at 10 mg/kg, po measured every 2 days for 10 days by vernier caliper analysis relative to control; assay type: functional; details: 240 h, time 10 day, read-out: TGI
[8] = Intrinsic clearance in human liver microsomes; assay type: ADME, Microsome
[9] = target: Proto-oncogene tyrosine-protein kinase Src (Homo sapiens) (UniProt P12931); assay: Inhibition of Src kinase phosphorylation at Tyr416/419 residue in human SK-OV-3 cells incubated for 24 hrs by Western blot analysis; assay type: cell-based
Chain of Proto-oncogene tyrosine-protein kinase Src (Homo sapiens) (P12931 2-536 limits assumed): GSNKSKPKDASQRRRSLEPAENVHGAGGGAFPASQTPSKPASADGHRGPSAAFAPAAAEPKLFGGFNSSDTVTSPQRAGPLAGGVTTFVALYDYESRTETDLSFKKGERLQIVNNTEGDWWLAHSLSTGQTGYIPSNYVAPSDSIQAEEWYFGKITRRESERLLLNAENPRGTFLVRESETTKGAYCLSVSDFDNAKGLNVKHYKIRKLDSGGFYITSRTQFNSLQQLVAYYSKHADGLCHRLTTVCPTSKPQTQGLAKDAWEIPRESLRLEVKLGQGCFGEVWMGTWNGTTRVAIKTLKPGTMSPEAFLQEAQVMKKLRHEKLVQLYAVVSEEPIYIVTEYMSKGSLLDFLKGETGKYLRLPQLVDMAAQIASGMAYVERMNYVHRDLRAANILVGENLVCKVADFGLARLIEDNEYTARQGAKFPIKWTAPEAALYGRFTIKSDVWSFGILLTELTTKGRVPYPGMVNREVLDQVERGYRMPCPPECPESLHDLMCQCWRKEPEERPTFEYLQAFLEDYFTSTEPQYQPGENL

[10] = Tmax in Sprague-Dawley rat at 5 mg/kg, po measured up to 24 hrs by LC/MS/MS analysis; assay type: ADME, organism-based; details: in vivo
[11] = Half life in Sprague-Dawley rat at 5 mg/kg, po measured up to 24 hrs by LC/MS/MS analysis; assay type: ADME, organism-based; details: in vivo
[12] = Clearance in Sprague-Dawley rat at 5 mg/kg, po measured up to 24 hrs by LC/MS/MS analysis; assay type: ADME, organism-based; details: in vivo
[13] = target: Focal adhesion kinase 1 (Homo sapiens) (UniProt Q05397); assay: Inhibition of FAK phosphorylation at […] residue in human SK-OV-3 cells incubated for 24 hrs by Western blot analysis; assay type: cell-based
Chain of Focal adhesion kinase 1 (Homo sapiens) (Q05397 2-1052 limits assumed): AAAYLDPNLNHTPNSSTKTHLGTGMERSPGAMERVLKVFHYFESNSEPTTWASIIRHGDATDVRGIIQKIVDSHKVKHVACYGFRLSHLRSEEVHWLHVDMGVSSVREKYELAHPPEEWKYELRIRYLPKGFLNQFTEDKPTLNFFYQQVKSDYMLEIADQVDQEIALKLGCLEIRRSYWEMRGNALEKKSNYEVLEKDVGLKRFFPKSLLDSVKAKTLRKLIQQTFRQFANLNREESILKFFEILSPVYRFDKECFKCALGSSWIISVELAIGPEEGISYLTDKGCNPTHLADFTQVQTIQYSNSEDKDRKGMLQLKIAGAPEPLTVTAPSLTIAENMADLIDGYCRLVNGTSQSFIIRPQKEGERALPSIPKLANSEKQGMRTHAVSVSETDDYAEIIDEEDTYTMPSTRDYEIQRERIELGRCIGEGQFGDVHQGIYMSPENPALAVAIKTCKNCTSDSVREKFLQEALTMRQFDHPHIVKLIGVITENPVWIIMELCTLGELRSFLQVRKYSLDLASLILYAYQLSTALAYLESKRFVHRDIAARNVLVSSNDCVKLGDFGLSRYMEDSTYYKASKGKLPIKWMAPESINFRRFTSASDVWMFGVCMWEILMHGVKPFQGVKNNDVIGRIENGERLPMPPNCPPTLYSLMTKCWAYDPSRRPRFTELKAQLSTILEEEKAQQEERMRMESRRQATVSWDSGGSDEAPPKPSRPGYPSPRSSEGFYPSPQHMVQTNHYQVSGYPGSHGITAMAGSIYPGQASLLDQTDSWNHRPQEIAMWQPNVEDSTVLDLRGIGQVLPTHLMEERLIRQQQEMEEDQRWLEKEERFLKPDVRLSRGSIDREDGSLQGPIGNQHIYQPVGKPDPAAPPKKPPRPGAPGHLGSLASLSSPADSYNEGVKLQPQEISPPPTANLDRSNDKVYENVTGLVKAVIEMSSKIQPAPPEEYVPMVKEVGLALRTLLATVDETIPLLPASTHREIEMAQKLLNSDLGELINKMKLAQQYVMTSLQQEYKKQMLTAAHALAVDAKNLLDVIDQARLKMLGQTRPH

[14] = Half life in human liver microsomes; assay type: ADME, Microsome
Tubulin = assay: Binding affinity to tubulin (unknown origin) assessed as dissociation constant by tryptophan based binding assay; assay type: protein-complex assay, Homo sapiens

Q: Which results are given for CCN1CCN(CCOc2ccc(-c3ccc(CC(=O)NCc4ccccc4)nc3)cc2)CC1?
A: IC50 (K562): 39.9 nM; IC50 (SK-OV-3 [1]): 14.5 nM; IC50 (Ramos): 36.3 nM

Q: With O=C(Cc1ccc(-c2ccc(OCCN3C[C@@H]4C[C@H]3CO4)cc2)cn1)NCc1ccccc1 as the compound, how does the IC50 (K562) read?
A: 16.2 nM

Q: And the IC50 (SK-OV-3 [1])?
A: 19.5 nM

Q: And the IC50 (Ramos)?
A: 25.8 nM

Q: Which results are given for CC1(C)C2CN(CCOc3ccc(-c4ccc(CC(=O)NCc5ccccc5)nc4)cc3)CC21 (stereo not given)?
A: IC50 (K562): 41.5 nM; IC50 (SK-OV-3 [1]): 165 nM; IC50 (Ramos): 64.4 nM

Q: Which IC50 (K562) does the source give for O=C(Cc1ccc(-c2ccc(OCCN3CC4CCC(C3)O4)cc2)cn1)NCc1ccccc1 here?
A: 6.2 nM

Q: What about the IC50 (SK-OV-3 [1]) of the same compound?
A: 3.2 nM

Q: And the IC50 (Ramos)?
A: 3.1 nM

Q: For CC(C)(C)OC(=O)N1CCN(CCOc2ccc(-c3ccc(CC(=O)NCc4ccccc4)nc3)cc2)CC1, which IC50 (K562) is on record?
A: > 100 nM

Q: What about the IC50 (SK-OV-3 [1]) of the same compound?
A: 53.3 nM

Q: And the IC50 (Ramos)?
A: 15.9 nM

Q: For O=C(Cc1ccc(-c2ccc(OCCCN3C[C@@H]4C[C@H]3CO4)cc2)cn1)NCc1ccccc1, which IC50 (K562) is on record?
A: > 100 nM

Q: What about the IC50 (SK-OV-3 [1]) of the same compound?
A: 80.2 nM

Q: And the IC50 (Ramos)?
A: > 100 nM

Q: With O=C(Cc1ccc(-c2ccc(OCCCCN3C[C@@H]4C[C@H]3CO4)cc2)cn1)NCc1ccccc1 as the compound, how does the IC50 (K562) read?
A: 53.2 nM

Q: And the IC50 (SK-OV-3 [1])?
A: 37 nM

Q: And the IC50 (Ramos)?
A: 25 nM

Q: For O=C(Cc1ccc(-c2ccc(OCCN3CCN(C(=O)C4CC4(F)F)CC3)cc2)cn1)NCc1ccccc1 (stereo not given), which IC50 (K562) is on record?
A: 53.5 nM

Q: What about the IC50 (SK-OV-3 [1]) of the same compound?
A: 16.8 nM

Q: What about the IC50 (Ramos) of the same compound?
A: 48.1 nM

Q: For COc1cc2c(c(OC)c1OC)-c1ccc(OC)c(=O)cc1[C@@H](NC(C)=O)CC2, which Activity (SK-OV-3 [2]) is on record?
A: inactive

Q: Which IC50 (K562) does the source give for O=C(Cc1ccc(-c2ccc(OCCCCN3CCOCC3)cc2)cn1)NCc1ccccc1 here?
A: 29.6 nM

Q: And the IC50 (SK-OV-3 [1])?
A: 10.4 nM

Q: What about the IC50 (Ramos) of the same compound?
A: 43.5 nM

Q: What does the source list for O=C(Cc1ccc(-c2ccc(OCCN3CCN(C(=O)C4CCC4)CC3)cc2)cn1)NCc1ccccc1?
A: bioavailability [3]: 13.3%; Cmax [4]: 484 ng/mL; Activity [5]: Non-Toxic; AUC(0-t) at 24 h [6]: 383 ng·h/mL; inhibition in vivo at 10 mg/kg [7]: 32%; IC50 (K562): 2.3 nM; CLH [8]: 67.4 mL·min/g; IC50 (SK-OV-3 [1]): 0.59 nM; IC50 (Ramos): 1.5 nM; inhibition [9]: Dose-Dependent Effect; Tmax [10]: 8.4 min; half-life [11]: 139 min; CL/F [12]: 209 mL/min/kg; inhibition [13]: Dose-Dependent Effect; half-life [14]: 20.6 min; Kd (Tubulin): 630 nM

Q: With O=C(Cc1ccc(-c2ccc(OCCN3CCC4(CC3)OCCO4)cc2)cn1)NCc1ccccc1 as the compound, how does the IC50 (K562) read?
A: 16.5 nM

Q: What about the IC50 (SK-OV-3 [1]) of the same compound?
A: 6.7 nM

Q: What about the IC50 (Ramos) of the same compound?
A: 23.8 nM

Q: Which results are given for CC1CCCN(CCOc2ccc(-c3ccc(CC(=O)NCc4ccccc4)nc3)cc2)C1 (stereo not given)?
A: IC50 (K562): > 100 nM; IC50 (SK-OV-3 [1]): 57.7 nM; IC50 (Ramos): > 100 nM
